Assay results taken from patent US9499550B2 (BRISTOL-MYERS SQUIBB COMPANY, priority 2012, dated 2016).
pEC50: −log10 of the molar value. Where two headings read alike, the source gives them in different places.

Assays:
[1] = system: HCV genotype 1a (H77 strain) replicon in HUH-7 cells; experiment: HCV replicon luciferase reporter assay, genotype 1a; type: cell-based; conditions: 3 days incubation
Procedure, shortened: (§1)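 Replicon inhibition for both genotypes was measured as Renilla luciferase signal (EnduRen, 7.5 μM final, 2 h) after 3-day, 37° C exposure of replicon-bearing HUH-7 cells in 4% FCS DMEM, 0.5% DMSO. The 1b construct carries S1179I; the 1a H77 construct carries P1496L and S2204I. Twenty-point, 3-fold dilutions were fitted four-parametrically for EC50, and CC50 was taken from multiplexed Cell Titer-Blue.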

[2] = system: HCV genotype 1b (Con1) replicon in HUH-7 cells; experiment: HCV replicon luciferase reporter assay, genotype 1b; type: cell-based; conditions: 3 days incubation
Procedure, shortened: as §1

[3] = Hepatitis C virus, Huh-7, 72 h, HCV genotype 1a replicon luciferase assay, range class, read-out: LE_1a (EC50, range)
[4] = Hepatitis C virus, Huh-7, 72 h, HCV genotype 1b replicon luciferase assay, range class, read-out: LE_1b (EC50, range)
[5] = Hepatitis C virus, Huh-7, 72 h, HCV genotype 1a replicon luciferase, read-out: LE_1a (EC50, range)
[6] = Hepatitis C virus, Huh-7, 72 h, HCV genotype 1b replicon luciferase, read-out: LE_1b (EC50, range)

Row | SMILES | pEC50 [1, 3] | pEC50 [2, 4] | pEC50 [1, 5] | pEC50 [2, 6] | other results
1 | CC[C@@H]1C[C@@H](C)CC/C=C\[C@@H]2C[C@@]2(C(=O)NS(=O)(=O)C2(CF)CC2)NC(=O)[C@@H]2C[C@@H](Oc3nccc4c5c(ccc34)N(C)CCO5)CN2C(=O)[C@H]1NC(=O)OC(C)(C)C(F)(F)F [Compound 5319, 1,1,1-trifluoro-2-methylpropan-2-yl((2R,6S,7R,9S,13aS,14aR,16aS,Z)-7-ethyl-14a-(((1-(fluoromethyl)cyclopropyl)sulfonyl)carbamoyl)-9-methyl-2-((4-methyl-3,4-dihydro-2H-[1,4]oxazino[2,3-f]isoquinolin-7-yl)oxy)-5,16-dioxo-1,2,3,5,6,7,8,9,10,11,13a,14,14a,15,16,16a-hexadecahydrocyclopropa[e]pyrrolo[1,2-a][1,4]diazacyclopentadecin-6-yl)carbamate] |  |  |  |  | pEC50 ([1]; HCV genotype 1a replicon luciferase, read-out: LE_1a (EC50)): 7.47; pEC50 ([2]; HCV genotype 1b replicon luciferase, read-out: LE_1b (EC50)): 7.85
2 | COCCOc1cnc(O[C@@H]2C[C@H]3C(=O)N[C@]4(C(=O)NS(=O)(=O)C5CC5)C[C@H]4/C=C\CC[C@H](C)C[C@@H](C)[C@H](NC(=O)OC4COC4)C(=O)N3C2)c2ccc(OC)cc12 [Compound 1158, oxetan-3-yl ((2R,6S,7R,9S,13aS,14aR,16aS,Z)-14a-((cyclopropylsulfonyl)carbamoyl)-2-((6-methoxy-4-(2-methoxyethoxyl)isoquinolin-1-yl)oxy)-7,9-dimethyl-5,16-dioxo-1,2,3,5,6,7,8,9,10,11,13a,14,14a,15,16,16a-hexadecahydrocyclopropa[e]pyrrolo[1,2-a][1,4]diazacyclopentadecin-6-yl)carbamate] | 6.99 to 8.32 | 6.99 to 8.32 |  |  | 
3 | COc1ccc2c(O[C@@H]3C[C@H]4C(=O)N[C@]5(C(=O)NS(=O)(=O)C6(C)CC6)C[C@H]5/C=C\CC[C@@H](C)C[C@@H](C)[C@H](NC(=O)OC(C)(C)C)C(=O)N4C3)nc(-c3ccc(OC(C)C)nc3)cc2c1 [Compound 5223, tert-butyl ((2R,6S,7R,9R,13aS,14aR,16aS,Z)-2-((3-(6-isopropoxypyridin-3-yl)-6-methoxyisoquinolin-1-yl)oxy)-7,9-dimethyl-14a-(((1-methylcyclopropyl)sulfonyl)carbamoyl)-5,16-dioxo-1,2,3,5,6,7,8,9,10,11,13a,14,14a,15,16,16a-hexadecahydrocyclopropa[e]pyrrolo[1,2-a][1,4]diazacyclopentadecin-6-yl)carbamate] |  |  | > 8.26 | > 8.26 | 
4 | CC1CC/C=C\[C@@H]2C[C@@]2(C(=O)NS(=O)(=O)C2(CF)CC2)NC(=O)[C@@H]2C[C@@H](Oc3nccc4c5c(ccc34)OCCO5)CN2C(=O)[C@@H](NC(=O)OC(C)(C)C)[C@H](C)C1 (stereo in doubt) [Compound 5321, tert-butyl ((2R,6S,7R,9R,13aS,14aR,16aS,Z)-2-((2,3-dihydro-[1,4]dioxino[2,3-f]isoquinolin-7-yl)oxy)-14a-(((1-(fluoromethyl)cyclopropyl)sulfonyl)carbamoyl)-7,9-dimethyl-5,16-dioxo-1,2,3,5,6,7,8,9,10,11,13a,14,14a,15,16,16a-hexadecahydrocyclopropa[e]pyrrolo[1,2-a][1,4]diazacyclopentadecin-6-yl)carbamate] |  |  | > 8.26 | > 8.26 | 
5 | COc1cc(F)cc2c(O[C@@H]3C[C@H]4C(=O)N[C@]5(C(=O)NS(=O)(=O)C6(C)CC6)C[C@H]5/C=C\CC[C@H](C)C[C@@H](C)[C@H](NC(=O)OC(C)(C)C(F)(F)F)C(=O)N4C3)nccc12 [Compound 3155, 1,1,1-trifluoro-2-methylpropan-2-yl((2R,6S,7R,9S,13aS,14aR,16aS,Z)-2-((7-fluoro-5-methoxyisoquinolin-1-yl)oxy)-7,9-dimethyl-14a-(((1-methylcyclopropyl)sulfonyl)carbamoyl)-5,16-dioxo-1,2,3,5,6,7,8,9,10,11,13a,14,14a,15,16,16a-hexadecahydrocyclopropa[e]pyrrolo[1,2-a][1,4]diazacyclopentadecin-6-yl)carbamate] | 6.99 to 8.32 | 6.99 to 8.32 |  |  | 
6 | COc1ccc2c(O[C@@H]3C[C@H]4C(=O)N[C@]5(C(=O)NS(=O)(=O)C6CC6)C[C@H]5/C=C\CC[C@H](C)C[C@@H](C)[C@H](NC(=O)OC(C)(C)C)C(=O)N4C3)nc(N(C)C)cc2c1 [Compound 3120, tert-butyl ((2R,6S,7R,9S,13aS,14aR,16aS,Z)-14a-((cyclopropylsulfonyl)carbamoyl)-2-((3-(dimethylamino)-6-methoxyisoquinolin-1-yl)oxy)-7,9-dimethyl-5,16-dioxo-1,2,3,5,6,7,8,9,10,11,13a,14,14a,15,16,16a-hexadecahydrocyclopropa[e]pyrrolo[1,2-a][1,4]diazacyclopentadecin-6-yl)carbamate] | 6.99 to 8.32 | 6.99 to 8.32 |  |  | 
7 | C[C@H]1CC/C=C\[C@@H]2C[C@@]2(C(=O)NS(=O)(=O)C2CC2)NC(=O)[C@@H]2C[C@@H](Oc3nccc4c5c(ccc34)OC(F)(F)O5)CN2C(=O)[C@@H](NC(=O)OC(C)(C)C)[C@H](C)C1 [Compound 5256, tert-butyl ((2R,6S,7R,9S,13aS,14aR,16aS,Z)-14a-((cyclopropylsulfonyl)carbamoyl)-2-((2,2-difluoro-[1,3]dioxolo[4,5-f]isoquinolin-6-yl)oxy)-7,9-dimethyl-5,16-dioxo-1,2,3,5,6,7,8,9,10,11,13a,14,14a,15,16,16a-hexadecahydrocyclopropa[e]pyrrolo[1,2-a][1,4]diazacyclopentadecin-6-yl)carbamate] |  |  | 6.99 to 8.32 | 6.99 to 8.32 | pEC50 ([1]; Hepatitis C virus, Huh-7, 72 h, HCV genotype 1a replicon luciferase, read-out: LE_1a (EC50)): 7.68; pEC50 ([2]; Hepatitis C virus, Huh-7, 72 h, HCV genotype 1b replicon luciferase, read-out: LE_1b (EC50)): 7.89
8 | CC[C@@H]1C[C@H](C)CC/C=C\[C@@H]2C[C@@]2(C(=O)NS(=O)(=O)C2(C)CC2)NC(=O)[C@@H]2C[C@@H](Oc3nc4cc(OC)ccc4nc3C(C)C)CN2C(=O)[C@H]1NC(=O)OC(C)(C)C [Compound 4250, tert-butyl ((2R,6S,7R,9R,13aS,14aR,16aS,Z)-7-ethyl-2-((3-isopropyl-7-methoxyquinoxalin-2-yl)oxy)-9-methyl-14a-(((1-methylcyclopropyl)sulfonyl)carbamoyl)-5,16-dioxo-1,2,3,5,6,7,8,9,10,11,13a,14,14a,15,16,16a-hexadecahydrocyclopropa[e]pyrrolo[1,2-a][1,4]diazacyclopentadecin-6-yl)carbamate] |  |  | 8.30 to 9.00 | 8.30 to 9.00 | 
9 | C[C@@H]1CC/C=C\[C@@H]2C[C@@]2(C(=O)NS(=O)(=O)C2(C)CC2)NC(=O)[C@@H]2C[C@@H](Oc3nccc4c5c(ccc34)CCCO5)CN2C(=O)[C@@H](NC(=O)OC(C)(C)C(F)(F)F)[C@H](C)C1 [Compound 6058, 1,1,1-trifluoro-2-methylpropan-2-yl((2R,6S,7R,9R,13aS,14aR,16aS,Z)-2-((3,4-dihydro-2H-pyrano[2,3-f]isoquinolin-7-yl)oxy)-7,9-dimethyl-14a-(((1-methylcyclopropyl)sulfonyl)carbamoyl)-5,16-dioxo-1,2,3,5,6,7,8,9,10,11,13a,14,14a,15,16,16a-hexadecahydrocyclopropa[e]pyrrolo[1,2-a][1,4]diazacyclopentadecin-6-yl)carbamate] |  |  | 8.30 to 9.00 | 9.00 to 9.29 | 
10 | C[C@@H]1CC/C=C\[C@@H]2C[C@@]2(C(=O)NS(=O)(=O)C2CC2)NC(=O)[C@@H]2C[C@@H](Oc3nccc4c5c(ccc34)N(C)CCO5)CN2C(=O)[C@@H](NC(=O)O[C@@H]2C[C@@H]3C[C@@H]3C2)[C@H](C)C1 [Compound 5292, (1R,3r,5S)-bicyclo[3.1.0]hexan-3-yl((2R,6S,7R,9R,13aS,14aR,16aS,Z)-14a-((cyclopropylsulfonyl)carbamoyl)-7,9-dimethyl-2-((4-methyl-3,4-dihydro-2H-[1,4]oxazino[2,3-f]isoquinolin-7-yl)oxy)-5,16-dioxo-1,2,3,5,6,7,8,9,10,11,13a,14,14a,15,16,16a-hexadecahydrocyclopropa[e]pyrrolo[1,2-a][1,4]diazacyclopentadecin-6-yl)carbamate] |  |  | > 8.26 | > 8.26 | 
11 | COc1ccc2c(O[C@@H]3C[C@H]4C(=O)N[C@]5(C(=O)NS(=O)(=O)C6(CF)CC6)C[C@H]5/C=C\CC[C@H](C)C[C@@H](C)[C@H](NC(=O)OC(C)(C)C)C(=O)N4C3)nc(N(C)C)nc2c1 [Compound 3005, tert-butyl ((2R,6S,7R,9S,13aS,14aR,16aS,Z)-2-((2-(dimethylamino)-7-methoxyquinazolin-4-yl)oxy)-14a-(((1-(fluoromethyl)cyclopropyl)sulfonyl)carbamoyl)-7,9-dimethyl-5,16-dioxo-1,2,3,5,6,7,8,9,10,11,13a,14,14a,15,16,16a-hexadecahydrocyclopropa[e]pyrrolo[1,2-a][1,4]diazacyclopentadecin-6-yl)carbamate] | 6.99 to 8.32 | 6.99 to 8.32 |  |  | 
12 | COc1ccc2c(O[C@@H]3C[C@H]4C(=O)N[C@]5(C(=O)NS(=O)(=O)C6(C)CC6)C[C@H]5/C=C\CC[C@@H](C)C[C@@H](C)[C@H](NC(=O)OC(C)(C)C(F)(F)F)C(=O)N4C3)nc(-c3ccc(C(C)(C)C)cc3)cc2c1 [Compound 4079] |  |  |  |  | pEC50 ([1]; Hepatitis C virus, GETYPE1A, Huh-7, 72 h, HCV genotype 1a replicon luciferase, read-out: LE_1a (EC50, range)): 6.99 to 8.32; pEC50 ([2]; Hepatitis C virus, GETYPE1B, Huh-7, 72 h, HCV genotype 1b replicon luciferase, read-out: LE_1b (EC50, range)): 6.99 to 8.32
